{
  "source": "patent US8785388B2",
  "about": "“TAT-BH3 methods for treating arthritis” (Saint Louis University, priority 2007, dated 2014)",
  "key": {"[1]": {"tested_on": "K/B×N serum transfer-induced arthritis", "assay": "Histopathological scoring of ankle sections (H&E, safranin O/methyl green)", "format": "in vivo, mice", "conditions": "saline vs TAT-inactive BH3", "method": "(§1) Paraffin embedded ankle or liver sections were stained with hematoxylin and eosin (H&E), Safranin O and methyl green. Histopathological scoring was performed and ankle sections were evaluated by examining at least 3 sections/ankle and 3 fields/section at 400× magnification. H&E ankle sections were scored on a 0-5 scale for inflammation, with 0=normal, 1=minimal infiltration, 2=mild infiltration, 3=moderate infiltration, […], mad 5=severe infiltration. Bone erosion was scored on a 0-5 scale by viewing H&E ankle sections, with 0=no or normal bone resorption, 1=small areas of resorption, 2=more numerous areas of resorption, 3=obvious resorption, 4=full thickness defects in the bone without distortion of the profile, 5=full thickness defects in the bone with distortion of the profile. H&E ankle stained sections were scored on a 0-5 scale for pannus formation, with 0=no pannus formation, 1=minimal pannus formation, 2=mild pannus formation, 3=moderate pannus formation, 4=marked pannus formation, and 5=severe pannus formation. H&E and Safranin 0 and methyl green sections were scored on a 0-5 scale for cartilage damage, with 0=no damage, 1-2=superficial cartilage destruction, 3-4=cartilage destruction to middle zone, 5=cartilage destruction to tide mark. Polymorphonuclear (PMN) leukocyte infiltration: 0=no PMNs, 1=rare scattered PMNs, 2=more frequent scattered PMNs, 3=small clusters of PMNs, 4=larger clusters of PMNs, mad 5=sheets of PMNs (abscess). Histopathological scoring was conducted on an Olympus BX40 microscope (1000×). Photographs were taken on a Nikon microscope equipped with the Nikon digital camera DMX 1200.\nTo accurately assess the degree of inflammation and destruction of cartilage and bone, ankle sections were examined using a histopathological scoring system on hematoxylin and eosin (H& E) or safranin O-methyl green stained ankle sections."}, "[2]": {"assay": "Toxicity: serum ALP, AST, ALT, blood urea nitrogen and liver histology in arthritic mice", "format": "in vivo", "conditions": "liver sections of arthritic mice", "method": "(§2) At each time point and prior to euthanasia, the degree of arthritis as indicated by joint swelling was quantitated by measuring two perpendicular diameters of the ankles using a caliper (Lange Caliper: Cambridge Scientific Industries, Cambridge Mass.). Joint circumference was calculated using the geometric formula of ellipse circumference (2πX √(a^2+b^2)/2). Following euthanasia, serum was isolated from peripheral blood by cardiac stick and ankle joints were removed. One of the ankle joints was fixed in 10% neutral buffered formalin for 24 hours, decalcified in EDTA-decalcification buffer for two weeks, embedded in paraffin, and sectioned. The other ankle joint was placed in liquid nitrogen, grounded into a fine powder by mortal and pestle, digested in protein lysis buffer ([…], 0.5% NP-40, 50 mM Tris, and 2 mM EDTA) in the presence of phosphatase and protease inhibitors, and homogenized on ice for 20 seconds. To examine any toxicity due to systemic delivery of TAT-Bim peptides, alkaline phosphatase (ALP), […] (AST), alanine aminotransferase (ALT), and blood urea nitrogen levels were measured.\nas §1"}, "peripheral blood cells": {"tested_on": "peripheral blood cells", "assay": "Peripheral blood cell counts (flow cytometry, hematology analyzer)", "format": "in vivo, mice", "conditions": "peripheral blood, mean ± standard error", "method": "Peripheral blood and bone marrow were isolated from mice following euthanasia. Total leukocyte numbers were determined using an automated hematology analyzer ABX Pentra 60 (Diamond Diagnostics, Inc, Holliston, Mass.). The red blood cells in peripheral blood were lysed and the remaining cells were fixed with BD FACS lysing solution (BD Biosciences, Pharmingen) following incubation with antibodies. Bone marrow cells were isolated by flushing Dulbecco's Modified Eagle Medium (DMEM) (Gibco, Grand Island, N.Y.) through the tibias and red blood cells were lysed with BD PharM Lyse (BD Biosciences, Pharmingen) prior to incubation with antibodies. Cells with incubated with Fc Block (BD Biosciences, Pharmingen) then stained with fluorochrome conjugated antibodies to CD45, CD11b, Gr-1, CD62L, Ly-6C, Ly-6G, CD31 (BD Biosciences, Pharmingen) or isotype control antibodies for 30 minutes. Cells were acquired on a BD LSRII (BD Biosciences, Pharmingen) using Diva Software at the Saint Louis University Core Flow Cytometry Facility. All analysis was performed using FlowJo software (Tree Star Inc.).\nPeripheral blood was isolated by cardiac sticks. Cells were blocked for 10 minutes with Fc block and then stained with anti-CD45, anti-CD19, anti-CD3, anti-CD4, anti-CDS, anti-CD11b, anti-Gr-1, and anti-CD62L antibodies for 30 minutes. Platelets and RBCs were determined on an automated hematology analyzer ABX Pentra 60. Following incubation with antibodies red blood cells were lysed and cells were fixed with Becton Dickenson FACS lysing solution."}, "IL-1β, TNFα, MCP-1, KC": {"tested_on": "IL-1β, TNFα, MCP-1, KC", "assay": "Circulating cytokine levels in serum", "format": "in vivo, mice", "conditions": "between saline, TAT-inactive BH3 and TAT-BH3 groups", "method": "as §2\nTAT-BH3 peptides treatment reduces the numbers of myeloid cells in arthritic joints. […] To this end, the numbers of polymorphonuclear cell and macrophages in saline and BH3 peptide arthritic mice were quantified. […]"}, "[3]": {"tested_on": "K/B×N serum transfer-induced arthritis", "assay": "K/B×N serum transfer-induced arthritis, ankle circumference (joint swelling)", "format": "in vivo, mice", "from_the_text": "The seven-week-old progeny from homozygous KRN TCR transgenic mice (C57BL/6 background) crossed with non-obese diabetes (NOD) mice (K/B×N) were euthanized, peripheral blood was isolated, and serum were collected and pooled. One hundred and fifty microliters of K/B×N serum were intraperitoneally injected on each flank of 6-week old wt mice.\nas §2\nTherefore, peptides to the BH3 domain of Bim were used that are fused to polycationic peptide derived from HIV-1 TAT. These peptides have shown to activate Bak and Bax, suppress Bcl-2 and Mcl-1, induce mitochondrial permeability, and release mitochondrial cytochrome c. Mice were intraperitoneally injected with K/B×N serum to induce the effector phase of inflammatory arthritis."}, "[4]": {"tested_on": "IL-1β, TNFα, MCP-1, KC, MMP-3", "assay": "ELISA of pro-inflammatory molecules in ankle extracts", "format": "in vivo, mouse", "set-up": "IL-1β / TNFα / MCP-1 / KC / MMP-3: unit not given here", "conditions": "ankle joints, seven days post-serum transfer; mean ± standard error", "method": "as §2\nFor detection of mouse IL-1β, TNFα, MCP-1, KC, or MMP-3 in ankle extracts, sandwich ELISAs were performed according to the manufacturer's instructions (R & D Systems, Minneapolis, Minn.). The sensitivity for all cytokines was 15.6 pg/mL for IL-1β and KC, 7.813 pg/mL for TNFα and MCP-1, and 0.312 ng/mL for MMP3. ELISAs were quantitated by absorbance at 450 nm on a microplate reader (BioRad, Hercules, Calif.). Data obtained using ELISA on ankle extracts were normalized by the total protein concentration (μg/μL) for each individual ankle extract.\nMice were euthanized at seven days post-serum transfer. Ankle joints from each mouse were isolated, snap frozen, grounded into a fine powder, lysed, and examined for IL-1β, TNFα, MCP-1, KC, and MMP-3 production using an ELISA. Data are shown as μg/μL per joint. Values represent the mean±standard error, which were compared by Student's t-test."}, "platelets": {"tested_on": "platelets", "conditions": "literature statement; cited from earlier work"}, "[5]": {"tested_on": "cells that express high levels of Mcl-1", "conditions": "literature statement; cited from earlier work"}},
  "note": "Square brackets hold non-standard residues; d marks the D form. Peptide text beside a SMILES is read from it. Orn = NCCC[C@H](N)C(=O)O",
  "data": [
    {"molecule": "CC[C@H](C)[C@H](NC(=O)[C@H](CCCNC(=N)N)NC(=O)[C@H](CCCNC(=N)N)NC(=O)[C@H](C)NC(=O)[C@H](CCC(=O)O)NC(=O)[C@H](CCC(N)=O)NC(=O)[C@H](C)NC(=O)[C@@H](NC(=O)[C@H](Cc1c[nH]c2ccccc12)NC(=O)[C@@H](NC(=O)[C@H](CCC(=O)O)NC(=O)[C@H](CCCNC(=N)N)NC(=O)[C@H](CCCNC(=N)N)NC(=O)[C@H](CCCNC(=N)N)NC(=O)[C@H](CCCN)NC(=O)[C@H](CCCNC(=N)N)NC(=O)[C@H](CCCNC(=N)N)NC(=O)[C@H](CCCCN)NC(=O)[C@H](CCCCN)NC(=O)[C@H](CCCNC(=N)N)NC(C)=O)[C@@H](C)CC)[C@@H](C)CC)C(=O)NCC(=O)N[C@@H](C)C(=O)N[C@@H](CCC(=O)O)C(=O)N[C@@H](Cc1ccccc1)C(=O)N[C@@H](CC(N)=O)C(=O)N[C@@H](C)C(=O)N[C@@H](Cc1ccc(O)cc1)C(=O)N[C@@H](Cc1ccc(O)cc1)C(=O)N[C@@H](C)C(=O)N[C@@H](CCCNC(=N)N)C(=O)O", "note": "[reference compound] (Ac-RKKRR[Orn]RRREIWIAQEARRIGAEFNAYYAR-OH)", "values": [
      {"measurement": "difference in histological scores versus saline", "setting": "[1]", "result": "no statistical difference"},
      {"measurement": "liver histology", "setting": "[2]", "result": "no gross histologic abnormalities"},
      {"measurement": "Platelets", "setting": "peripheral blood cells; hematology analyzer", "result": "1305.75 ± 70.03 (1E6)"},
      {"measurement": "RBCs", "setting": "peripheral blood cells; hematology analyzer", "result": "9.84 ± 0.22 (1E6)"},
      {"measurement": "B-cells+", "setting": "peripheral blood cells", "result": "2.38 ± 0.21 (1E6)"},
      {"measurement": "CD4+ T-cells", "setting": "peripheral blood cells", "result": "1.15 ± 0.10 (1E6)"},
      {"measurement": "CD8+ T-cells", "setting": "peripheral blood cells", "result": "0.72 ± 0.06 (1E6)"},
      {"measurement": "Inflammatory monocytes", "setting": "peripheral blood cells", "result": "0.25 ± 0.03 (1E6)"},
      {"measurement": "N-K-cells", "setting": "peripheral blood cells", "result": "0.19 ± 0.13 (1E6)"},
      {"measurement": "Resident Monocytes", "setting": "peripheral blood cells", "result": "0.14 ± 0.01 (1E6)"},
      {"measurement": "T-cells", "setting": "peripheral blood cells", "result": "1.94 ± 0.17 (1E6)"},
      {"measurement": "Total Leukocytes", "setting": "peripheral blood cells", "result": "6.1 ± 0.18 (1E6)"},
      {"measurement": "circulating levels of IL-1β, TNFα, MCP-1, and KC in serum", "setting": "IL-1β, TNFα, MCP-1, KC", "result": "no differences"},
      {"measurement": "change in ankle circumference", "setting": "[3]; day 2 after K/B×N serum, 2 mg/kg i.p.", "result": 1.6, "unit": "mm"},
      {"measurement": "difference in arthritis (ankle circumference) versus saline", "setting": "[3]; saline vs TAT-inactive BH3", "result": "no statistical difference"},
      {"measurement": "IL-1β", "setting": "[4]", "result": "824 ± 103"},
      {"measurement": "KC", "setting": "[4]", "result": "428 ± 45"},
      {"measurement": "MCP-1", "setting": "[4]", "result": "196 ± 17"},
      {"measurement": "MMP-3", "setting": "[4]", "result": "17 ± 4"},
      {"measurement": "TNFα", "setting": "[4]", "result": "4.4 ± 0.3"}
    ]},
    {"molecule": "CN(C)CC[C@H](CSc1ccccc1)Nc1ccc(S(=O)(=O)NC(=O)c2ccc(N3CCN(Cc4ccccc4-c4ccc(Cl)cc4)CC3)cc2)cc1[N+](=O)[O-]", "note": "[ABT-737]", "values": [
      {"measurement": "effect on platelet numbers", "setting": "platelets", "result": "dramatic effect"},
      {"measurement": "effect on cells that express high levels of Mcl-1", "setting": "[5]", "result": "no effect"}
    ]}
  ]
}
